Assays:
[1] = tested on: NOF (normal oral fibroblasts); experiment: High throughput drug screening (CellTiter-Glo, DSS); assay type: cell-based, human; conditions: for drug sensitivity score (DSS): 72 h, 10-100,000 nM, myogel, non-irradiated; for delta DSS (ΔDSS): DSS irradiated (2 Gy) minus DSS non-irradiated, >5 synergy, <–5 antagonism
Description: (§1) The MPMs were screened against a panel of […] different cell lines (HSC-3, UT-SCC-8, UT-SCC-24A, UT-SCC-24B, UT-SCC-42A, UT-SCC-42B and NOF) at the High Throughput Biomedicine Unit (HTB) at the Institute for Molecular Medicine Finland (FIMM). On day 1, black-walled 384-well plates were coated with 5 µl diluted myogel (0.5 mg/ml) per well using an automated reagent dispenser (MultiFlo FX, BioTek, Winooski, VT, United States). On day 2, 500 cells per well were seeded in 20 µl of complete media using the MultiFlo FX (BioTek), and the cells were left to adhere overnight. On day 3, the MPMs, cisplatin, DMSO and Benzethonium chloride were added to the cells using an automatic liquid handler (Echo 550, Labcyte Inc., San Jose, CA, United States). Cisplatin and the MPMs were added to yield five different concentrations in a ten-fold dilution series ranging from 10 to 100,000 nM. Each concentration was tested in triplicate wells. DMSO (0.1%) and benzethonium chloride (100 µM) served as negative and positive control, respectively. Three hours later, some of the plates were irradiated with 2 Gy in a gamma irradiator (OB29/4, STS, Braunschweig, Germany). All plates were taken to the irradiation room to ensure similar handling of the plates. 72 h later, the plates were cooled to room temperature before 25 µl of CellTiter-Glo 2.0 reagent (Promega, Madison, WI, USA) was added to each well using the MultiFlo FX (BioTek). Next, the plates were centrifuged for 5 min at 1,000 rpm before the luminescence signal was measured with the PHERAstar FS HT reader (BMG LABTECH GmbH, Ortenberg, Germany). The raw data was analyzed with the Breeze software (https://breeze.fmm.fi), which normalized the luminescence signal from treated cells against the signal from negative and positive control cells to calculate the percentage of inhibition and generate dose-response curves, which were then used to calculate drug sensitivity scores (DSS). The DSS is a parameter which combines the IC50, the slope of the dose-response curve, and the minimum and maximum responses into a single metric, as previously described ([Yadav et al., 2014]). Quality control was performed by calculation of the Z′-factor, which was >0.7 for all cell lines, indicating high quality of the assay ([Zhang et al., 1999]).

UT-SCC-106A = experiment: as above; assay type: cell-based, human; conditions: for drug sensitivity score (DSS): 72 h, 10-100,000 nM, myogel, non-irradiated; for delta DSS (ΔDSS): DSS irradiated (2 Gy) minus DSS non-irradiated, >5 synergy, <–5 antagonism
Description: as §1

UT-SCC-24B = experiment: as above; assay type: cell-based, human; conditions: for drug sensitivity score (DSS): 72 h, 10-100,000 nM, myogel, non-irradiated; for delta DSS (ΔDSS): DSS irradiated (2 Gy) minus DSS non-irradiated, >5 synergy, <–5 antagonism
Description: as §1

UT-SCC-42A = experiment: as above; assay type: cell-based, human; conditions: for drug sensitivity score (DSS): 72 h, 10-100,000 nM, myogel, non-irradiated; for delta DSS (ΔDSS): DSS irradiated (2 Gy) minus DSS non-irradiated, >5 synergy, <–5 antagonism
Description: as §1

UT-SCC-42B = experiment: as above; assay type: cell-based, human; conditions: for drug sensitivity score (DSS): 72 h, 10-100,000 nM, myogel, non-irradiated; for delta DSS (ΔDSS): DSS irradiated (2 Gy) minus DSS non-irradiated, >5 synergy, <–5 antagonism
Description: as §1

UT-SCC-8 = experiment: as above; assay type: cell-based, human; conditions: for drug sensitivity score (DSS): UT-SCC-8, 72 h, 10-100,000 nM, myogel, non-irradiated; for delta DSS (ΔDSS): UT-SCC-8, DSS irradiated (2 Gy) minus DSS non-irradiated, >5 synergy, <–5 antagonism
Description: as §1

UT-SCC-24A cells = experiment: Flow cytometric detection of apoptosis (Annexin V/PI); assay type: cell-based, human; conditions: 24 h
Description: HSC-3 and UT-SCC-24A cells were seeded, 300,000 cells/well, in 6-well plates and left to adhere overnight. The media was then removed and replaced by 2 ml complete DMEM/F-12 containing 5, 7.5, 10 or 20 µM of MPM-2:0, MPM-6:0, MPM-3:2 or MPM-4:2, or 50 µM cisplatin. Some cells were left untreated. The cells were then incubated for 24 h. Next, the cell supernatants were collected before the cells were trypsinized and spun down with the supernatants. For the staining, an apoptosis detection kit was used (#88-8005-74, Thermo Fisher Scientific). The cells were washed once in PBS and once in 1x binding buffer before being incubated with FITC labeled Annexin V diluted 1:25 in 1 × binding buffer for 15 min. Next the cells were washed in 1 × binding buffer before being incubated with PI diluted 1:100 in 1 × binding buffer for at least 5 min before analysis was performed on the LSR Fortessa (BD Biosciences, CA, United States). Analyses were performed in FlowJo™ v.10 (https://www.flowjo.com/).

Bacillus subtilis 168 = experiment: Bacterial minimum inhibitory concentration (broth microdilution); assay type: cell-based; conditions: Bacillus subtilis 168, 48 h, 35 °C, di-TFA salts
Description: (§2) Method for determination of bacterial minimum inhibitory concentration (MIC) Stock solutions of the water-soluble compounds were prepared by dissolving them in ultrapure water (Milli-Q H2O, Millipore, MA, USA). The less water-soluble compounds were first dissolved in 25 - 50 µL 100% DMSO before further dilution with ultrapure water. The DMSO concentration was always less than 1% in the working concentration of each compound. A modified broth microdilution susceptibility test based on the CLSI M07-A9 protocol, [2] was used to determine minimal inhibitory concentrations (MIC). Briefly, the test compounds were two-fold diluted with ultrapure water in polystyrene 96-well flat-bottom microplates (NUNC, Roskilde, Denmark). The bacterial inoculum was diluted to 2.5 - 3 x 10^4 cells/mL in Mueller-Hinton broth (MHB, Difco Laboratories, USA) and added to the different diluted compounds in a ratio of 1:1. Positive control (ciprofloxacin, Sigma-Aldrich, USA), negative control (bacteria + water), and media control (media + water) were included in each experiment. The microplates were incubated for 48 h at 35 °C in an EnVision microplate reader (PerkinElmer, Waltham, MA, USA). The lowest concentration of compounds that caused no bacterial growth, as determined by optical density (OD600) measurements, was defined as the MIC value. All compounds were tested in 3 technical replicates.
(§3) Supplementary Video S1. HSC-3 cells were seeded at 100% confluence and a standard scratch wound migration assay was performed. The cells were imaged every 2 hours for 24 hours. The video

[2] = tested on: Escherichia coli ATCC 25922; experiment: as above; assay type: cell-based; conditions: ATCC25922; Escherichia coli ATCC 25922, 48 h, 35 °C, di-TFA salts
Description: as §2, §3

[3] = tested on: Pseudomonas aeruginosa ATCC 27853; experiment: as above; assay type: cell-based; conditions: ATCC27853; Pseudomonas aeruginosa ATCC 27853, 48 h, 35 °C, di-TFA salts
Description: as §2, §3

[4] = tested on: Staphylococcus aureus ATCC 9144; experiment: as above; assay type: cell-based; conditions: ATCC9144; Staphylococcus aureus ATCC 9144, 48 h, 35 °C, di-TFA salts
Description: as §2, §3

[5] = tested on: seven HNSCC cell lines and one normal oral fibroblast cell line (NOF); experiment: High throughput drug screening, statements on the whole panel; assay type: cell-based, human; conditions: 72 h, DSS
Description: as §1

Compound	drug sensitivity score (DSS) [1]	delta DSS (ΔDSS) [1]	drug sensitivity score (DSS) (UT-SCC-106A)	delta DSS (ΔDSS) (UT-SCC-106A)	drug sensitivity score (DSS) (UT-SCC-24B)	delta DSS (ΔDSS) (UT-SCC-24B)	drug sensitivity score (DSS) (UT-SCC-42A)	delta DSS (ΔDSS) (UT-SCC-42A)	drug sensitivity score (DSS) (UT-SCC-42B)	delta DSS (ΔDSS) (UT-SCC-42B)	drug sensitivity score (DSS) (UT-SCC-8)	delta DSS (ΔDSS) (UT-SCC-8)	apoptotic (Annexin V+/PI−) population (in words) (UT-SCC-24A cells; cisplatin 50 µM, MPMs 5-20 µM)	MIC (Bacillus subtilis 168) [µg/mL]	MIC [2] [µg/mL]	MIC [3] [µg/mL]	MIC [4] [µg/mL]	potency / effect on viability over the cell line panel (in words) [5]	Annexin V−/PI+ population (in words) (UT-SCC-24A cells)
N.N.[Cl][Pt][Cl] [Cisplatin, cisplatin, reference compound]	9,6	-1,9	9	0,3	11,6	0,7	7,1	-0,1	7,7	-0,6	16,8	-0,8	small, but clearly apoptotic (Annexin V+/PI−) population						
NCCN1C(=O)N(CCN)C(=O)C(CCCc2ccccc2)(CCCc2ccccc2)C1=O [MPM-2:0]	18,3	-0,7	18	-0,5	18,3	-0,1	19	-0,7	18,7	-0,1	19,2	0,6		8	16	16	8	had the highest DSS	
CN(C)CCCN1C(=O)N(CCCN(C)C)C(=O)C(CCCc2ccccc2)(CCCc2ccccc2)C1=O [MPM-3:2]	19,3	-1,6	18,6	-0,2	18,4	0,1	16	0,6	15,7	0,3	17,8	0,1		16	32	> 64	> 64	had the highest DSS	induced a large population of Annexin V−/PI + UT-SCC-24A cells
CN(C)CCCCN1C(=O)N(CCCCN(C)C)C(=O)C(CCCc2ccccc2)(CCCc2ccccc2)C1=O [MPM-4:2]	22,6	1,2	19,5	-0,2	18,9	-0,5	17	0,4	16,6	-0,4	18,1	0,5		16	32	> 64	64	had the highest DSS	induced a large population of Annexin V−/PI + UT-SCC-24A cells
NCCCCCCN1C(=O)N(CCCCCCN)C(=O)C(CCCc2ccccc2)(CCCc2ccccc2)C1=O [MPM-6:0]	18	-0,3	17,9	-0,4	18,3	0,1	17,9	0,3	18,4	-0,5	19,5	-0,8		2	8	8	4	had the highest DSS	

From article PMC10098121, “Amphipathic barbiturates as marine product mimics with cytolytic and immunogenic effects on head and neck squamous cell carcinoma cell lines” (Frontiers in Pharmacology, 2023)
